PubChem BioAssay (NCI)
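These data come from cells grown in 96-well plates and exposed to compound for 48 hours at five concentrations. GI50: concentration for 50% inhibition of growth. The concentration for full growth arrest is given as TGI.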

Experiments:
Test in all cases: NCI anticancer screen, dose series, 48 h
[1] = test system: CCRF-CEM leukemia
[2] = test system: MDA-MB-435
[3] = test system: OVCAR-3 ovarian
[4] = test system: 786-0 renal
[5] = test system: SF-268 CNS
[6] = test system: PC-3 prostate
[7] = test system: HCT-116 colon
[8] = test system: UO-31 renal
[9] = test system: HCC-2998 colon
[10] = test system: SK-MEL-5 melanoma
[11] = test system: SNB-75 CNS
[12] = test system: NCI-H226 lung
[13] = test system: TK-10 renal
[14] = test system: MDA-MB-231 breast
[15] = test system: HOP-92 NSCLC
[16] = test system: SF-539 CNS
[17] = test system: UACC-62 melanoma
[18] = test system: IGROV1 ovarian
[19] = test system: M14 melanoma
[20] = test system: COLO 205 colon
[21] = test system: HOP-62 NSCLC
[22] = test system: UACC-257 melanoma
[23] = test system: MALME-3M melanoma
[24] = test system: NCI-H460 lung
[25] = test system: HCT-15 colon
[26] = test system: HL-60(TB) leukemia
[27] = test system: HT29 colon
[28] = test system: RPMI-8226 leukemia
[29] = test system: NCI-H522 lung
[30] = test system: A498 renal
[31] = test system: K-562 leukemia
[32] = test system: A549 NSCLC
[33] = test system: EKVX NSCLC
[34] = test system: BT-549 breast
[35] = test system: MDA-N
[36] = test system: MOLT-4 leukemia
[37] = test system: CAKI-1 renal
[38] = test system: SW-620 colon
[39] = test system: T-47D breast
[40] = test system: OVCAR-4 ovarian
[41] = test system: SK-MEL-28 melanoma
[42] = test system: SK-MEL-2 melanoma
[43] = test system: KM12 colon
[44] = test system: MCF7 breast
[45] = test system: ACHN renal
[46] = test system: SF-295 CNS
[47] = test system: OVCAR-8 ovarian
[48] = test system: OVCAR-5 ovarian
[49] = test system: SR leukemia
[50] = test system: SNB-19 CNS
[51] = test system: HS 578T breast
[52] = test system: U251 CNS
[53] = test system: NCI-H23 lung
[54] = test system: RXF 393 renal
[55] = test system: NCI/ADR-RES ovarian
[56] = test system: SK-OV-3 ovarian
[57] = test system: SN12C renal
[58] = test system: LOX IMVI melanoma
[59] = test system: DU-145 prostate

SMILES: CN(CC(=O)O)Cc1oc(CO)cc(=O)c1O
- TGI [1]: > 100 µM
- TGI [2]: > 100 µM
- TGI [3]: > 100 µM
- TGI [4]: > 100 µM
- TGI [5]: > 100 µM
- TGI [6]: > 100 µM
- TGI [7]: > 100 µM
- TGI [8]: > 100 µM
- TGI [9]: > 100 µM
- TGI [10]: > 100 µM
- TGI [11]: > 100 µM
- TGI [12]: > 100 µM
- TGI [13]: > 100 µM
- TGI [14]: > 100 µM
- TGI [15]: > 100 µM
- TGI [16]: > 100 µM
- TGI [17]: > 100 µM
- TGI [18]: > 100 µM
- TGI [19]: > 100 µM
- TGI [20]: > 100 µM
- TGI [21]: > 100 µM
- TGI [22]: > 100 µM
- TGI [23]: > 100 µM
- TGI [24]: > 100 µM
- TGI [25]: > 100 µM
- TGI [26]: 76.5 µM
- TGI [27]: > 100 µM
- TGI [28]: > 100 µM
- TGI [29]: > 100 µM
- TGI [30]: > 100 µM
- TGI [31]: > 100 µM
- TGI [32]: > 100 µM
- TGI [33]: > 100 µM
- TGI [34]: > 100 µM
- TGI [35]: > 100 µM
- TGI [36]: > 100 µM
- TGI [37]: > 100 µM
- TGI [38]: > 100 µM
- TGI [39]: > 100 µM
- TGI [40]: > 100 µM
- TGI [41]: > 100 µM
- TGI [42]: > 100 µM
- TGI [43]: > 100 µM
- TGI [44]: > 100 µM
- TGI [45]: > 100 µM
- TGI [46]: > 100 µM
- TGI [47]: > 100 µM
- TGI [48]: > 100 µM
- TGI [49]: > 100 µM
- TGI [50]: > 100 µM
- TGI [51]: > 100 µM
- TGI [52]: > 100 µM
- TGI [53]: > 100 µM
- TGI [54]: > 100 µM
- TGI [55]: > 100 µM
- TGI [56]: > 100 µM
- TGI [57]: > 100 µM
- TGI [58]: > 100 µM

SMILES: N[C@H](CCC(=O)NCP(=O)(O)O)C(=O)O
- TGI [2]: > 100 µM
- TGI [3]: > 100 µM
- TGI [4]: > 100 µM
- TGI [6]: > 100 µM
- TGI [7]: > 100 µM
- TGI [8]: > 100 µM
- TGI [9]: > 100 µM
- TGI [10]: > 100 µM
- TGI [13]: 25.6 µM
- TGI [14]: > 100 µM
- TGI [16]: > 100 µM
- TGI [17]: > 100 µM
- TGI [18]: > 100 µM
- TGI [20]: > 100 µM
- TGI [21]: > 100 µM
- TGI [22]: > 100 µM
- TGI [23]: > 100 µM
- TGI [24]: > 100 µM
- TGI [25]: > 100 µM
- TGI [26]: > 100 µM
- TGI [27]: > 100 µM
- TGI [28]: > 100 µM
- TGI [29]: > 100 µM
- TGI [30]: > 100 µM
- TGI [31]: > 100 µM
- TGI [32]: > 100 µM
- TGI [33]: > 100 µM
- TGI [34]: > 100 µM
- TGI [35]: > 100 µM
- TGI [36]: > 100 µM
- TGI [38]: > 100 µM
- TGI [39]: > 100 µM
- TGI [41]: > 100 µM
- TGI [42]: > 100 µM
- TGI [43]: > 100 µM
- TGI [44]: > 100 µM
- TGI [45]: > 100 µM
- TGI [46]: > 100 µM
- TGI [47]: > 100 µM
- TGI [48]: > 100 µM
- TGI [49]: > 100 µM
- TGI [50]: > 100 µM
- TGI [51]: > 100 µM
- TGI [52]: > 100 µM
- TGI [53]: > 100 µM
- TGI [55]: > 100 µM
- TGI [57]: > 100 µM

SMILES: CC1=CCC[C@H]2[C@](C)(CC3=CC(=O)C(Sc4ccccc4)=CC3=O)[C@@H](C)CC[C@]12C
- GI50 [1]: 3.89 µM
- TGI [1]: 17.4 µM
- GI50 [2]: 17.1 µM
- TGI [2]: 43.5 µM
- TGI [3]: 31.4 µM
- TGI [4]: 32.2 µM
- TGI [6]: 82 µM
- TGI [7]: 30.3 µM
- TGI [8]: 29.1 µM
- TGI [9]: 41 µM
- TGI [10]: 30.9 µM
- TGI [11]: 54.5 µM
- TGI [59]: 47.4 µM
- TGI [12]: 27.8 µM
- TGI [14]: 51.8 µM
- GI50 [15]: 16.8 µM
- TGI [15]: 31.9 µM
- TGI [16]: 34.6 µM
- TGI [17]: 55.3 µM
- GI50 [18]: 16.2 µM
- TGI [18]: 30.4 µM
- TGI [19]: 33.7 µM
- TGI [20]: 29.5 µM
- TGI [21]: 32.6 µM
- TGI [22]: 32.5 µM
- TGI [24]: 42.9 µM
- TGI [25]: 35.7 µM
- GI50 [28]: 20.2 µM
- TGI [28]: 46.1 µM
- TGI [30]: 39 µM
- GI50 [31]: 19.5 µM
- TGI [31]: 41.2 µM
- TGI [32]: 33.3 µM
- TGI [33]: 38.9 µM
- TGI [34]: 34.1 µM
- TGI [35]: 32.4 µM
- GI50 [36]: 2.59 µM
- TGI [36]: 6.03 µM
- TGI [37]: 36.7 µM
- TGI [38]: 30.5 µM
- GI50 [39]: 20.4 µM
- TGI [39]: 72 µM
- TGI [40]: 43.7 µM
- TGI [41]: 35.7 µM
- GI50 [42]: 19.9 µM
- TGI [42]: 56.1 µM
- TGI [43]: > 100 µM
- GI50 [44]: 22.6 µM
- TGI [44]: 51.7 µM
- TGI [45]: 35.3 µM
- TGI [46]: 32.9 µM
- TGI [47]: 26.4 µM
- TGI [48]: 32.1 µM
- TGI [49]: 48.3 µM
- TGI [50]: 38.8 µM
- TGI [52]: 40.1 µM
- GI50 [53]: 14.7 µM
- TGI [53]: 28.2 µM
- GI50 [54]: 16.1 µM
- TGI [54]: 34.3 µM
- TGI [55]: 32.5 µM
- TGI [57]: 31.6 µM
- GI50 [58]: 13.6 µM
- TGI [58]: 26.4 µM

SMILES: COc1ccccc1C1(C)SCc2nc3ccccc3n21 (stereo not given)
- TGI [1]: > 10 µM
- TGI [2]: > 10 µM
- TGI [3]: > 10 µM
- TGI [6]: > 10 µM
- TGI [8]: > 10 µM
- TGI [59]: > 10 µM
- TGI [12]: > 10 µM
- TGI [13]: > 10 µM
- TGI [15]: > 10 µM
- TGI [19]: > 10 µM
- TGI [23]: > 10 µM
- TGI [25]: > 10 µM
- TGI [26]: > 10 µM
- TGI [29]: > 10 µM
- TGI [31]: > 10 µM
- TGI [34]: > 10 µM
- TGI [35]: > 10 µM
- TGI [36]: > 10 µM
- TGI [38]: > 10 µM
- TGI [40]: > 10 µM
- TGI [42]: > 10 µM
- TGI [43]: > 10 µM
- TGI [44]: > 10 µM
- TGI [48]: > 10 µM
- TGI [49]: > 10 µM
- TGI [50]: > 10 µM
- TGI [52]: > 10 µM
- TGI [53]: > 10 µM
- TGI [55]: > 10 µM
- TGI [57]: > 10 µM
- TGI [58]: > 10 µM
